In brackets after ≈: the same amount, converted by molar mass.
Assays:
[1] = tested on: NF-κB; assay: NF-κB luciferase reporter assay in A549/NF-κBLuc cells stimulated with IL-1β; type: cell-based, human; conditions: Homo sapiens, A549, A549/NF-κBLuc cells; compound added 1 hour before IL-1β, then 3 hours incubation; luciferase activity; read-out: NF-κB Inhibitory Activity (IC50)
Protocol: Effect on Human Lung Cancer-Derived Cell A549 (A549/NF-κBluc) Containing Stably Introduced Luciferase Plasmid (pNFκB-Luc, Stratagene. U.S.A.) Regulated by NF-κB Binding Sequence
Using Lipofectamine (Lifetech Oriental, Tokyo), pNFκB-Luc and pSV2neo (Clontech, U.S.A.) were co-transfected into the A549 cell (ATCC CCL185) and G418 sulfate (1 mg/ml, Lifetech Oriental) was added to the culture medium to select cells containing stably introduced pNFκB-Luc A549/NF-κBLuc.
The compound obtained in Examples each was added to A549/NF-κBLuc and one hour after that, IL-1β capable of activating NF-κB was added. The incubation was further continued for 3 hours.
NF-κB Inhibitory Activity (IC50) of Substituted Benzoic Acid Derivitives: […]

SMILES	melting point [°C]	IC50 [1] [µg/mL]
COC1=C(OC)C(=O)C(Cc2ccc(O)c(C(=O)Nc3ccc(F)cc3)c2)=C(C)C1=O [Example 142, N-[5-(5,6-Dimethoxy-3-methyl-1,4-benzoquinon-2-yl)methyl-2-hydroxybenzoyl]-4-fluoroaniline]	125 to 127	9 (≈ 21.2 µM)
COC1=C(OC)C(=O)C(Cc2ccc(OC(C)=O)c(C(=O)Nc3ccc(CC#N)cc3)c2)=C(C)C1=O [Example 149, N-[5-(5,6-Dimethoxy-3-methyl-1,4-benzoquinon-2-yl)methyl-2-acetoxybenzoyl]-4-cyanomethylaniline]	125 to 128	25 (≈ 51.2 µM)
COC1=C(OC)C(=O)C(Cc2ccc(OC(C)=O)c(C(=O)Nc3ccc(NC(=O)OC(C)(C)C)cc3)c2)=C(C)C1=O [Example 199, N-[5-(5,6-Dimethoxy-3-methyl-1,4-benzoquinon-2-yl)methyl-2-acetoxybenzoyl]-4-(tert-butoxycarbonyl)aminoaniline]	188.5 to 191	16 (≈ 28.3 µM)
COC1=C(OC)C(=O)C(Cc2ccc(O)c(C(=O)Nc3ccccc3C(F)(F)F)c2)=C(C)C1=O [Example 146, N-[5-(5,6-Dimethoxy-3-methyl-1,4-benzoquinon-2-yl)methyl-2-hydroxybenzoyl]-2-trifluoromethylaniline]	111 to 114	11 (≈ 23.1 µM)
COC1=C(OC)C(=O)C(Cc2ccc(OC(C)=O)c(C(=O)Nc3ccc(C(=O)OC(C)(C)C)cc3)c2)=C(C)C1=O [Example 188, tert-Butyl N-[5-(5,6-dimethoxy-3-methyl-1,4-benzoquinon-2-yl)methyl-2-acetoxybenzoyl]-4-aminobenzoate]	78.5 to 81	9 (≈ 16.4 µM)
COC1=C(OC)C(=O)C(Cc2ccc(OC(C)=O)c(C(=O)Nc3ccc(-n4ccnc4)cc3)c2)=C(C)C1=O [Example 208, N-[5-(5,6-Dimethoxy-3-methyl-1,4-benzoquinon-2-yl)methyl-2-acetoxybenzoyl]-4-(imidazol-1-yl)aniline]	116.5 to 118.5	19 (≈ 36.9 µM)
CCOC(=O)c1ccc(NC(=O)c2cc(CC3=C(C)C(=O)C(OC)=C(OC)C3=O)ccc2OC(C)=O)cc1 [Example 147, Ethyl N-[5-(5,6-dimethoxy-3-methyl-1,4-benzoquinon-2-yl)methyl-2-acetoxybenzoyl]-4-aminobenzoate]	154 to 156.5	19 (≈ 36.4 µM)
COC1=C(OC)C(=O)C(Cc2ccc(O)c(C(=O)Nc3ccc(NC(=O)OC(C)(C)C)cc3)c2)=C(C)C1=O [Example 200, N-[5-(5,6-Dimethoxy-3-methyl-1,4-benzoquinon-2-yl)methyl-2-hydroxybenzoyl]-4-(tert-butoxycarbonyl)aminoaniline]	127 to 129	17 (≈ 32.5 µM)
COC1=C(OC)C(=O)C(Cc2ccc(OC(C)=O)c(C(=O)Nc3cccnc3OC)c2)=C(C)C1=O [Example 215, N-(2-Methoxypyridin-3-yl)-5-(5,6-dimethoxy-3-methyl-1,4-benzoquinon-2-yl)methyl-2-acetoxybenzamide]	111 to 112	
CCOC(=O)c1ccc(NC(=O)c2cc(CC3=C(C)C(=O)C(OC)=C(OC)C3=O)ccc2OCc2cccnc2)cc1 [Example 167, Ethyl N-[5-(5,6-dimethoxy-3-methyl-1,4-benzoquinon-2-yl)methyl-2-(3-pyridylmethyloxy)benzoyl]-4-aminobenzoate]	83 to 85.5	
COC1=C(OC)C(=O)C(Cc2ccc(O)c(C(=O)Nc3ccccn3)c2)=C(C)C1=O [Example 156, N-(Pyridin-2-yl)-5-(5,6-dimethoxy-3-methyl-1,4-benzoquinon-2-yl)methyl-2-hydroxybenzamide]	180 to 183	

Continued, values first:

melting point [°C]	IC50 [1] [µg/mL]	SMILES
200.5 to 202	10 (≈ 19.7 µM)	COC1=C(OC)C(=O)C(Cc2ccc(O)c(C(=O)Nc3ccc(C(=O)OC(C)(C)C)cc3)c2)=C(C)C1=O [Example 214, tert-Butyl N-[5-(5,6-dimethoxy-3-methyl-1,4-benzoquinon-2-yl)methyl-2-hydroxybenzoyl]-4-aminobenzoate]
213.5 to 215.5	4 (≈ 8.84 µM)	COC1=C(OC)C(=O)C(Cc2ccc(O)c(C(=O)Nc3ccc([N+](=O)[O-])cc3)c2)=C(C)C1=O [Example 191, N-[5-(5,6-Dimethoxy-3-methyl-1,4-benzoquinon-2-yl)methyl-2-hydroxybenzoyl]-4-nitroaniline]
102.5 to 105	24 (≈ 48.6 µM)	COC1=C(OC)C(=O)C(Cc2ccc(O)c(C(=O)Nc3ccc(N4CCOCC4)nc3)c2)=C(C)C1=O [Example 225, N-(6-Morpholinopyridin-3-yl)-5-(5,6-dimethoxy-3-methyl-1,4-benzoquinon-2-yl)methyl-2-hydroxybenzamide]
169 to 171	98 (≈ 240 µM)	COC1=C(OC)C(=O)C(Cc2cccc(C(=O)Nc3cccnc3)c2O)=C(C)C1=O [Example 207, N-(Pyridin-3-yl)-3-(5,6-dimethoxy-3-methyl-1,4-benzoquinon-2-yl)methyl-2-hydroxybenzamide]
199 to 201	5 (≈ 12.2 µM)	CC1=C(C)C(=O)C(Cc2ccc(O)c(C(=O)Nc3cccnc3Cl)c2)=C(C)C1=O [Example 237]
104.5 to 107.5	23 (≈ 47.9 µM)	COC1=C(OC)C(=O)C(Cc2ccc(OC(C)=O)c(C(=O)Nc3ccc(OC)nc3)c2)=C(C)C1=O [Example 180]
112 to 114	10 (≈ 22.8 µM)	COC1=C(OC)C(=O)C(Cc2ccc(O)c(C(=O)Nc3cccnc3OC)c2)=C(C)C1=O [Example 216, N-(2-Methoxypyridin-3-yl)-5-(5,6-dimethoxy-3-methyl-1,4-benzoquinon-2-yl)methyl-2-hydroxybenzamide]
199.5 to 201.5	30	COC1=C(OC)C(=O)C(Cc2ccc(O)c(C(=O)Nc3ccncc3)c2)=C(C)C1=O.CS(=O)(=O)O [Example 203, N-(Pyridin-4-yl)-5-(5,6-dimethoxy-3-methyl-1,4-benzoquinon-2-yl)methyl-2-hydroxybenzamide (methanesulfonate)]
178 to 180	46 (≈ 101 µM)	COC1=C(OC)C(=O)C(Cc2ccc(OC)c(C(=O)Nc3cccnc3Cl)c2)=C(C)C1=O [Example 221, N-(2-Chloropyridin-3-yl)-5-(5,6-dimethoxy-3-methyl-1,4-benzoquinon-2-yl)methyl-2-methoxybenzamide]
169 to 170	11 (≈ 25.1 µM)	COC1=C(OC)C(=O)C(Cc2ccc(O)c(C(=O)Nc3ccc(OC)nc3)c2)=C(C)C1=O [Example 181, N-(6-Methoxypyridin-3-yl)-5-(5,6-dimethoxy-3-methyl-1,4-benzoquinon-2-yl)methyl-2-hydroxybenzamide]
138 to 141		COC1=C(OC)C(=O)C(Cc2ccc(O)c(C(=O)Nc3c(Cl)cc(OC(F)(F)F)cc3Cl)c2)=C(C)C1=O [Example 192, N-[5-(5,6-Dimethoxy-3-methyl-1,4-benzoquinon-2-yl)methyl-2-hydroxybenzoyl]-2,6-dichloro-4-trifluoromethoxyaniline]
177.5 to 180.5		COC1=C(OC)C(=O)C(Cc2cccc(C(=O)Nc3ccc(N4CCOCC4)cc3)c2O)=C(C)C1=O [Example 179, N-[3-(5,6-Dimethoxy-3-methyl-1,4-benzoquinon-2-yl)methyl-2-hydroxybenzoyl]-4-morpholinoaniline]
